Target: JAK1 (Homo sapiens (Human), UniProt P23458)
Assay: Analysis of JAK1 activity inhibition ability (ADP-Glo Kinase Assay)
Type: biochemical
Conditions: JAK1 enzyme, ADP-Glo luminescence, ATP 250 uM, IRS-itide substrate, 30° C. 40 minutes; read-out: IC50
Procedure, shortened: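 JAK1 enzyme, IRS-itide substrate (40 ng/mL) and 250 uM ATP, both as prepared in kinase buffer (Tris-HCl pH 7.5, MgCl2, BSA, DTT), reacted with compound 40 min at 30 °C. ADP formed was detected by ADP-Glo luminescence; IC50 is the concentration giving 50% inhibition versus control.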

Chain of JAK1 (P23458 whole entry): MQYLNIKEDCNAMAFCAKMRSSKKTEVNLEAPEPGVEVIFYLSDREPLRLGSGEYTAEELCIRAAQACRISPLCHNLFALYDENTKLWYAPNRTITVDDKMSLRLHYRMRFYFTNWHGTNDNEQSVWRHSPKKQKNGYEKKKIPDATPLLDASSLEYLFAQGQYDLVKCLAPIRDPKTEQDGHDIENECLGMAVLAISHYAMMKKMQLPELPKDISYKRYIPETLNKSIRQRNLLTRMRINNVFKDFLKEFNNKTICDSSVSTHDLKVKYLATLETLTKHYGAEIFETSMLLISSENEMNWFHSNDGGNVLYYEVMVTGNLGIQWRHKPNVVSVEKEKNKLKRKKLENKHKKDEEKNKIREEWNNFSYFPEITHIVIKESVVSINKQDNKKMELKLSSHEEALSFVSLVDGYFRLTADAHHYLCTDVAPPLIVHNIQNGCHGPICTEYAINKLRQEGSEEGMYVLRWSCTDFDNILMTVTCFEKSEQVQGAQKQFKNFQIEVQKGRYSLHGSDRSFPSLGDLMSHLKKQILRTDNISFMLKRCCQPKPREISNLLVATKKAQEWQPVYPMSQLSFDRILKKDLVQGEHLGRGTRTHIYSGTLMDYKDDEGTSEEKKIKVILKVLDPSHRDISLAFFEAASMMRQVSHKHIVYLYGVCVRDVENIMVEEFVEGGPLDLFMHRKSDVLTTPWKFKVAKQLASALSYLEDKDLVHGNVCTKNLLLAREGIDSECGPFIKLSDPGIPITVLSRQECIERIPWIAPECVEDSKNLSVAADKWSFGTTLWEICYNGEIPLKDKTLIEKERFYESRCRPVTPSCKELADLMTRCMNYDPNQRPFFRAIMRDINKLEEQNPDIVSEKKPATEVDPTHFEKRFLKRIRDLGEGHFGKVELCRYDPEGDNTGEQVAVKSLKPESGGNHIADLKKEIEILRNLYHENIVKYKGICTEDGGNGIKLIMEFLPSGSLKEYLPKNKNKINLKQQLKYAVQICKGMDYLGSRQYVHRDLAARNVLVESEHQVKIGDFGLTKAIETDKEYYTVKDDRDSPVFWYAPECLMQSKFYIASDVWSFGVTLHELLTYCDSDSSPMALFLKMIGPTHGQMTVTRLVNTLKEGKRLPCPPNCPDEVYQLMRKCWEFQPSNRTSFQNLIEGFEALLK

| Compound | IC50 [nM] |
| --- | --- |
| O=C(Nc1cc(C2=CCN(S(=O)(=O)N3CCOCC3)CC2)c2cc[nH]c2n1)C1CC1 [Example 234, N-(4-(1-(morpholinosulfonyl)-1,2,3,6-tetrahydropyridin-4-yl)-1H-pyrrolo[2,3-b]pyridin-6-yl)cyclopropanecarboxamide] | 20 to 200 |
| CCCS(=O)(=O)N1C2C=C(c3cc(NC(=O)C4CC4)nc4[nH]ccc34)CC1CC2 (centres unmarked) [Example 176, N-(4-(8-(propylsulfonyl)-8-azabicyclo[3.2.1]oct-2-en-3-yl)-1H-pyrrolo[2,3-b]pyridin-6-yl)cyclopropanecarboxamide] | 20 to 200 |
| O=C(Nc1cc(C2=CCN(C(=O)C3CC3F)CC2)c2cc[nH]c2n1)C1CC1 (centres unmarked) [Example 274, N-(4-(1-(2-fluorocyclopropane-1-carbonyl)-1,2,3,6-tetrahydropyridin-4-yl)-1H-pyrrolo[2,3-b]pyridin-6-yl)cyclopropanecarboxamide] | < 20 |
| CC(C)S(=O)(=O)Nc1ccc(-c2cc(NC(=O)C3CC3)nc3[nH]ccc23)cc1 [Example 41, N-(4-(4-((1-methylethyl)sulfonamido)phenyl)-1H-pyrrolo[2,3-b]pyridin-6-yl)cyclopropanecarboxamide] | < 20 |
| N#CC1(C(=O)N2CC=C(c3cc(NC(=O)C4CC4)nc4[nH]ccc34)C2)CC1 [Example 430, N-(4-(1-(1-cyanocyclopropane-1-carbonyl)-2,5-dihydro-1H-pyrrol-3-yl)-1H-pyrrolo[2,3-b]pyridin-6-yl)cyclopropanecarboxamide] | > 200 |
| CCc1cc(NS(=O)(=O)CC2(C#N)CC2)ccc1-c1cc(NC(=O)C2CC2)nc2[nH]ccc12 [Example 109, N-(4-(4-(((1-cyanocyclopropyl)methyl)sulfonamido)-2-ethylphenyl)-1H-pyrrolo[2,3-b]pyridin-6-yl)cyclopropanecarboxamide] | < 20 |
| NC(=O)c1ccc(S(=O)(=O)Nc2ccc(-c3nc(NC(=O)C4CC4)nc4[nH]ccc34)cc2)cc1 [Example 200, 4-(N-(4-(2-(cyclopropanecarboxamido)-7H-pyrrolo[2,3-d]pyrimidin-4-yl)phenyl)sulfamoyl)benzamide] | > 200 |
| CC1CN(C(=O)c2ccnc(F)c2)CC=C1c1cc(NC(=O)C2CC2)nc2[nH]ccc12 (centres unmarked) [Example 309, N-(4-(1-(2-fluoroisonicotinoyl)-3-methyl-1,2,3,6-tetrahydropyridin-4-yl)-1H-pyrrolo[2,3-b]pyridin-6-yl)cyclopropanecarboxamide] | < 20 |
| N#Cc1ccc(Cn2cc(-c3nc(NC(=O)C4CC4)nc4[nH]ccc34)cn2)cn1 [Example 482, N-(4-(1-((6-cyanopyridin-3-yl)methyl)-1H-pyrazol-4-yl)-7H-pyrrolo[2,3-d]pyrimidin-2-yl)cyclopropanecarboxamide] | > 200 |
| O=C(Nc1cc(C2=CCN(Cc3ccns3)CC2)c2cc[nH]c2n1)C1CC1 [Example 488, N-(4-(1-(isothiazol-5-ylmethyl)-1,2,3,6-tetrahydropyridin-4-yl)-1H-pyrrolo[2,3-b]pyridin-6-yl)cyclopropanecarboxamide] | < 20 |
| O=C(Nc1cc(-c2ccc(NCC3CC3)cc2)c2cc[nH]c2n1)C1CC1 [Example 470, N-(4-(4-((cyclopropylmethyl)amino)phenyl)-1H-pyrrolo[2,3-b]pyridin-6-yl)cyclopropanecarboxamide] | 20 to 200 |
| CCCS(=O)(=O)Nc1cc(F)c(-c2cc(NC(=O)C3CC3)nc3[nH]ccc23)cc1F [Example 84, N-(4-(2,5-difluoro-4-(propylsulfonamido)phenyl)-1H-pyrrolo[2,3-b]pyridin-6-yl)cyclopropanecarboxamide] | < 20 |
| C[C@@H]1CN(C(=O)c2cccc(Br)c2)CC=C1c1cc(NC(=O)C2CC2)nc2[nH]ccc12 [Example 397, (S)—N-(4-(1-(3-bromobenzoyl)-3-methyl-1,2,3,6-tetrahydropyridin-4-yl)-1H-pyrrolo[2,3-b]pyridin-6-yl)cyclopropanecarboxamide] | < 20 |
| O=C(Nc1cc(C2=CC3CCC(C2)N3S(=O)(=O)CCCF)c2cc[nH]c2n1)C1CC1 (centres unmarked) [Example 175, N-(4-(8-((3-fluoropropyl)sulfonyl)-8-azabicyclo[3.2.1]oct-2-en-3-yl)-1H-pyrrolo[2,3-b]pyridin-6-yl)cyclopropanecarboxamide] | 20 to 200 |
| O=C(Nc1cc(-c2ccc(OS(=O)(=O)CCCF)cc2)c2cc[nH]c2n1)C1CC1 [Example 635, 4-(6-(cyclopropanecarboxamido)-1H-pyrrolo[2,3-b]pyridin-4-yl)phenyl 3-fluoropropane-1-sulfonate] | 20 to 200 |
| Cc1cc(NS(=O)(=O)C2CC2)ccc1-c1cc(NC(=O)C2CC2)nc2[nH]ccc12 [Example 90, N-(4-(4-(cyclopropanesulfonamido)-2-methylphenyl)-1H-pyrrolo[2,3-b]pyridin-6-yl)cyclopropanecarboxamide] | 20 to 200 |

| Compound | IC50 [nM] |
| --- | --- |
| O=C(Nc1cc(C2=CCN(C(=O)NC(C3CC3)C(F)(F)F)CC2)c2cc[nH]c2n1)C1CC1 (centres unmarked) [Example 450, 4-(6-(cyclopropanecarboxamido)-1H-pyrrolo[2,3-b]pyridin-4-yl)-N-(1-cyclopropyl-2,2,2-trifluoroethyl)-3,6-dihydropyridine-1 (2H)-carboxamide] | > 200 |
| N#CCN1CCC(n2cc(-c3cc(NC(=O)C4CC4)nc4[nH]ccc34)cn2)CC1 [Example 611, N-(4-(1-(1-(cyanomethyl)piperidin-4-yl)-1H-pyrazol-4-yl)-1H-pyrrolo[2,3-b]pyridin-6-yl)cyclopropanecarboxamide] | 20 to 200 |
| O=C(Nc1cc(-c2ccc(NC3CCN(C(=O)c4cc(F)cc(F)c4)CC3)cc2)c2cc[nH]c2n1)C1CC1 [Example 508, N-(4-(4-((1-(3,5-difluorobenzoyl)piperidin-4-yl)amino)phenyl)-1H-pyrrolo[2,3-b]pyridin-6-yl)cyclopropanecarboxamide] | > 200 |
| CC1CN(C(=O)c2ccc(F)c(F)c2)CC=C1c1cc(NC(=O)C2CC2)nc2[nH]ccc12 (centres unmarked) [Example 311, N-(4-(1-(3,4-difluorobenzoyl)-3-methyl-1,2,3,6-tetrahydropyridin-4-yl)-1H-pyrrolo[2,3-b]pyridin-6-yl)cyclopropanecarboxamide] | 20 to 200 |
| N#CCC1(N2CC=C(c3cc(NC(=O)C4CC4)nc4[nH]ccc34)CC2)CN(S(=O)(=O)c2ccc(F)cc2)C1 [Example 623, N-(4-(1-(3-(cyanomethyl)-1-((4-fluorophenyl)sulfonyl)azetidin-3-yl)-1,2,3,6-tetrahydropyridin-4-yl)-1H-pyrrolo[2,3-b]pyridin-6-yl)cyclopropanecarboxamide] | 20 to 200 |
| CCC(=O)NC1CC=C(c2cc(NC(=O)C3CC3)nc3[nH]ccc23)CC1 (centres unmarked) [Example 242, N-(4-(4-propionamidocyclohex-1-en-1-yl)-1H-pyrrolo[2,3-b]pyridin-6-yl)cyclopropanecarboxamide] | > 200 |
| N#CC1(CS(=O)(=O)N2CC=C(c3cc(NC(=O)C4CC4)nc4[nH]ccc34)C2)CC1 [Example 213, N-(4-(1-(((1-cyanocyclopropyl)methyl)sulfonyl)-2,5-dihydro-1H-pyrrol-3-yl)-1H-pyrrolo[2,3-b]pyridin-6-yl)cyclopropanecarboxamide] | > 200 |
| N#CCC1(CS(=O)(=O)NC2CC=C(c3cc(NC(=O)C4CC4)nc4[nH]ccc34)CC2)CC1 (centres unmarked) [Example 156, N-(4-(4-(((1-(cyanomethyl)cyclopropyl)methyl)sulfonamido)cyclohex-1-en-1-yl)-1H-pyrrolo[2,3-b]pyridin-6-yl)cyclopropanecarboxamide] | < 20 |
| CC(C)(C)OC(=O)N1CCCC(NC(=O)Cc2ccc(-c3cc(NC(=O)C4CC4)nc4[nH]ccc34)cc2)C1 (centres unmarked) [Example 555, tert-butyl 3-(2-(4-(6-(cyclopropanecarboxamido)-1H-pyrrolo[2,3-b]pyridin-4-yl)phenyl)acetamido)piperidine-1-carboxylate] | > 200 |
| O=C(Nc1cc(C2=CC3CCC(C2)N3S(=O)(=O)C2CC2)c2cc[nH]c2n1)C1CC1 (centres unmarked) [Example 177, N-(4-(8-(cyclopropylsulfonyl)-8-azabicyclo[3.2.1]oct-2-en-3-yl)-1H-pyrrolo[2,3-b]pyridin-6-yl)cyclopropanecarboxamide] | 20 to 200 |
| O=C(NCC(F)(F)F)C1CC=C(c2cc(NC(=O)C3CC3)nc3[nH]ccc23)CC1 (centres unmarked) [Example 531, 4-(6-(cyclopropanecarboxamido)-1H-pyrrolo[2,3-b]pyridin-4-yl)-N-(2,2,2-trifluoroethyl)cyclohex-3-ene-1-carboxamide] | 20 to 200 |
| O=C(Nc1cc(C2CC3CCC(C2)N3S(=O)(=O)CCCF)c2cc[nH]c2n1)C1CC1 (centres unmarked) [Example 648, N-(4-(8-((3-fluoropropyl)sulfonyl)-8-azabicyclo[3.2.1]octan-3-yl)-1H-pyrrolo[2,3-b]pyridin-6-yl)cyclopropanecarboxamide] | > 200 |
| N#CC1CC(N2CC=C(c3cc(NC(=O)C4CC4)nc4[nH]ccc34)CC2)C1 (centres unmarked) [Example 490, N-(4-(1-(3-cyanocyclobutyl)-1,2,3,6-tetrahydropyridin-4-yl)-1H-pyrrolo[2,3-b]pyridin-6-yl)cyclopropanecarboxamide] | 20 to 200 |
| Cc1cc(NS(=O)(=O)CCCC#N)ccc1-c1cc(NC(=O)C2CC2)nc2[nH]ccc12 [Example 96, N-(4-(4-((3-cyanopropyl)sulfonamido)-2-methylphenyl)-1H-pyrrolo[2,3-b]pyridin-6-yl)cyclopropanecarboxamide] | 20 to 200 |
| N#Cc1cc(NS(=O)(=O)c2ccc(F)c(F)c2)ccc1-c1cc(NC(=O)C2CC2)nc2[nH]ccc12 [Example 146, N-(4-(2-cyano-4-((3,4-difluorophenyl)sulfonamido)phenyl)-1H-pyrrolo[2,3-b]pyridin-6-yl)cyclopropanecarboxamide] | > 200 |
| C[C@@H]1CN(C(=O)c2cccn(C)c2=O)CC=C1c1cc(NC(=O)C2CC2)nc2[nH]ccc12 [Example 405, (S)—N-(4-(3-methyl-1-(1-methyl-2-oxo-1,2-dihydropyridine-3-carbonyl)-1,2,3,6-tetrahydropyridin-4-yl)-1H-pyrrolo[2,3-b]pyridin-6-yl)cyclopropanecarboxamide] | > 200 |
